# According to US10105357B2, “Indication of antibiotic drugs for preparation of cancer inhibition pharmaceutical composition” (LAUNX BIOMEDICAL CO., LTD., priority 2014, dated 2018):
# Structures can show the parent of a compound that is named as a salt. Where two headings read alike, the source gives them in different places.
# Columns and labels:
# cancer cell lines = assay: Cell viability analysis (WST-1) on cancer cell lines; format: cell-based, human; settings: drug 10 μM, 72 hours, WST-1; Table 3
# [1] = test system: HI650 (Lung Adenocarcinoma); assay: Cell viability analysis, lung cancer HI650; format: cell-based, human; settings: Homo sapiens, NCI-H1650, 72 h
# [2] = test system: A549 (Lung Adenocarcinoma); assay: Cell viability analysis, lung cancer A549; format: cell-based, human; settings: Homo sapiens, A549, 72 h
# [3] = test system: AGS (Gastric Adenocarcinoma); assay: Cell viability analysis, gastric cancer AGS; format: cell-based, human; settings: Homo sapiens, 72 h
# [4] = test system: MKN-45 (Gastric Adenocarcinoma); assay: Cell viability analysis, gastric cancer MKN-45; format: cell-based, human; settings: Homo sapiens, MKN-45, 72 h
# [5] = test system: HepG2 (Hepatocellular Carcinoma); assay: Cell viability analysis, hepatic cancer HepG2; format: cell-based, human; settings: Homo sapiens, HepG2, 72 h
# [6] = test system: Hep3B (hepatocellular carcinoma); assay: Cell viability analysis, hepatic cancer Hep3B; format: cell-based, human; settings: Homo sapiens, 72 h; Hep3B; repeated experiment; read-out: The results of antibiotic drug inhibiting cancer cell lines (cell viability analysis), Hep3B
# [7] = test system: LoVo (Colorectal Adenocarcinoma); assay: Cell viability analysis, colon cancer LoVo; format: cell-based, human; settings: Homo sapiens, LoVo, 72 h
# [8] = test system: A375 (Amelanotic Melanoma); assay: Cell viability analysis, skin cancer A375; format: cell-based, human; settings: Homo sapiens, A-375, 72 h
# [9] = test system: BCC (basal cell carcinoma); assay: Cell viability analysis, skin cancer BCC; format: cell-based, human; settings: Homo sapiens, 72 h; BCC; repeated experiment; read-out: The results of antibiotic drug inhibiting cancer cell lines (cell viability analysis), BCC
# [10] = test system: HeLa (Cervix Adenocarcinoma); assay: Cell viability analysis, cervical cancer HeLa; format: cell-based, human; settings: Homo sapiens, HeLa, 72 h, HeLa
# [11] = test system: C-33A (Cervical carcinoma); assay: Cell viability analysis, cervical cancer C-33A; format: cell-based, human; settings: Homo sapiens, 72 h; C-33A; repeated experiment; read-out: The results of antibiotic drug inhibiting cancer cell lines (cell viability analysis), C-33A
# [12] = test system: PC3 (p53−) (Prostate Adenocarcinoma); assay: Cell viability analysis, prostate cancer PC3; format: cell-based, human; settings: Homo sapiens, 72 h
# [13] = test system: TSGH-8301 (Urinary Bladder Carcinoma); assay: Cell viability analysis, bladder cancer TSGH-8301; format: cell-based, human; settings: Homo sapiens, 72 h
# T24 = assay: Cell viability analysis, bladder cancer T24; format: cell-based, human; settings: Homo sapiens, T-24, 72 h; T24; repeated experiment; read-out: The results of antibiotic drug inhibiting cancer cell lines (cell viability analysis), T24
# [14] = test system: MDA-MB-231 (Mammary Gland, Adenocarcinoma); assay: Cell viability analysis, breast cancer MDA-MB-231; format: cell-based, human; settings: Homo sapiens, MDA-MB-231, 72 h; MDA-MB231; repeated experiment; read-out: The results of antibiotic drug inhibiting cancer cell lines (cell viability analysis), MDA-MB231
# BxPC-3 = assay: Cell viability analysis, pancreatic cancer BxPC-3; format: cell-based, human; settings: Homo sapiens, 72 h; BxPC-3; repeated experiment; read-out: The results of antibiotic drug inhibiting cancer cell lines (cell viability analysis), BxPC-3
# AsPC-1 = assay: Cell viability analysis, pancreatic cancer AsPC-1; format: cell-based, human; settings: Homo sapiens, ASPC1, 72 h; AsPC-1; repeated experiment; read-out: The results of antibiotic drug inhibiting cancer cell lines (cell viability analysis), AsPC-1
# NIH: OVCAR-3 = assay: Cell viability analysis, ovarian cancer NIH: OVCAR-3; format: cell-based, human; settings: Homo sapiens, 72 h; NIH-OVCAR-3; repeated experiment; read-out: The results of antibiotic drug inhibiting cancer cell lines (cell viability analysis), NIH-OVCAR-3
# TOV-21G = assay: Cell viability analysis, ovarian cancer TOV-21G; format: cell-based, human; settings: Homo sapiens, TOV21G, 72 h; TOV-21G; repeated experiment; read-out: The results of antibiotic drug inhibiting cancer cell lines (cell viability analysis), TOV-21G
# [15] = test system: SAS (Tongue squamous cell carcinoma); assay: Cell viability analysis, tongue cancer SAS; format: cell-based, human; settings: Homo sapiens, 72 h; SAS; repeated experiment; read-out: The results of antibiotic drug inhibiting cancer cell lines (cell viability analysis), SAS
# U-2OS = assay: Cell viability analysis, osteosarcoma U-2OS; format: cell-based, human; settings: Homo sapiens, 72 h; U2OS; repeated experiment; read-out: The results of antibiotic drug inhibiting cancer cell lines (cell viability analysis), U2OS
# [16] = test system: HL-60 (Acute Promyelocytic Leukemia); assay: Cell viability analysis, leukemia HL-60; format: cell-based, human; settings: Homo sapiens, HL-60, 72 h, drug 10 μM, 72 hours, WST-1, OD450 nm; read-out: cell viability (survival rate), HL-60
# [17] = test system: HCT116 (p53+) (Colorectal Carcinoma)
# [18] = H1650, repeated experiment, read-out: The results of antibiotic drug inhibiting cancer cell lines (cell viability analysis), H1650
# [19] = drug 10 μM, 72 hours, WST-1, OD450 nm, read-out: cell viability (survival rate), H1650
# [20] = A549, repeated experiment, read-out: The results of antibiotic drug inhibiting cancer cell lines (cell viability analysis), A549
# [21] = drug 10 μM, 72 hours, WST-1, OD450 nm, read-out: cell viability (survival rate), A549
# [22] = AGS, repeated experiment, read-out: The results of antibiotic drug inhibiting cancer cell lines (cell viability analysis), AGS
# [23] = drug 10 μM, 72 hours, WST-1, OD450 nm, read-out: cell viability (survival rate), AGS
# [24] = MKN-45, repeated experiment, read-out: The results of antibiotic drug inhibiting cancer cell lines (cell viability analysis), MKN-45
# [25] = drug 10 μM, 72 hours, WST-1, OD450 nm, read-out: cell viability (survival rate), MKN-45
# [26] = HepG2, repeated experiment, read-out: The results of antibiotic drug inhibiting cancer cell lines (cell viability analysis), HepG2
# [27] = drug 10 μM, 72 hours, WST-1, OD450 nm, read-out: cell viability (survival rate), HepG2
# [28] = read-out: The results of antibiotic drug inhibiting cancer cell lines (cell viability analysis), LoVo, repeated experiment
# [29] = read-out: cell viability (survival rate), LoVo, drug 10 μM, 72 hours, WST-1, OD450 nm
# [30] = A375, repeated experiment, read-out: The results of antibiotic drug inhibiting cancer cell lines (cell viability analysis), A375
# [31] = drug 10 μM, 72 hours, WST-1, OD450 nm, read-out: cell viability (survival rate), A375
# [32] = repeated experiment, read-out: The results of antibiotic drug inhibiting cancer cell lines (cell viability analysis), HeLa
# [33] = drug 10 μM, 72 hours, WST-1, OD450 nm, read-out: cell viability (survival rate), HeLa
# [34] = PC-3, repeated experiment, read-out: The results of antibiotic drug inhibiting cancer cell lines (cell viability analysis), PC-3
# [35] = drug 10 μM, 72 hours, WST-1, OD450 nm, read-out: cell viability (survival rate), PC3
# [36] = TSGH-8301, repeated experiment, read-out: The results of antibiotic drug inhibiting cancer cell lines (cell viability analysis), TSGH-8301
# [37] = drug 10 μM, 72 hours, WST-1, OD450 nm, read-out: cell viability (survival rate), TSGH
Compound,"viability at 10 µM [1, 18]","viability at 10 µM [1, 19]","viability at 10 µM [2, 20]","viability at 10 µM [2, 21]","viability at 10 µM [3, 22]","viability at 10 µM [3, 23]","viability at 10 µM [4, 24]","viability at 10 µM [4, 25]","viability at 10 µM [5, 26]","viability at 10 µM [5, 27]",viability at 10 µM [6],"viability at 10 µM [7, 28]","viability at 10 µM [7, 29]","viability at 10 µM [8, 30]","viability at 10 µM [8, 31]",viability at 10 µM [9],"viability at 10 µM [10, 32]","viability at 10 µM [10, 33]",viability at 10 µM [11],"viability at 10 µM [12, 34]",also measured
CN(C)CCC=C1c2ccccc2CCc2ccccc21 [Amitriptyline HCl],111%,64.4%,73.3%,69.3%,146%,61.5%,135%,102%,106%,106%,124%,90.5%,96.5%,94.3%,84.8%,113%,111%,90.6%,100%,99.4%,"inhibition effect on different cancer cell lines (cancer cell lines): significant inhibition effect; viability at 10 µM [12, 35]: 61.9%; viability at 10 µM [13, 36]: 157%; viability at 10 µM [13, 37]: 133%; viability at 10 µM (T24): 97.5%; viability at 10 µM [14]: 106%; viability at 10 µM (BxPC-3): 67.2%; viability at 10 µM (AsPC-1): 73.1%; viability at 10 µM (NIH: OVCAR-3): 104%; viability at 10 µM (TOV-21G): 118%; viability at 10 µM [15]: 67.5%; viability at 10 µM (U-2OS): 68.5%; viability at 10 µM [16]: 81.4%"
CC(C)/N=c1\cc2n(-c3ccc(Cl)cc3)c3ccccc3nc-2cc1Nc1ccc(Cl)cc1 [Clofazimine],92.2%,74.4%,87.1%,49.5%,78.8%,64.2%,108%,53.1%,90.4%,82.2%,91.6%,83.4%,68.3%,81.2%,37.3%,72.9%,94.3%,59.3%,111%,106%,"inhibition effect on different cancer cell lines (cancer cell lines): significant inhibition effect; viability at 10 µM [12, 35]: 53.2%; viability at 10 µM [13, 36]: 111%; viability at 10 µM [13, 37]: 51.7%; viability at 10 µM (T24): 74.1%; viability at 10 µM [14]: 102%; viability at 10 µM (BxPC-3): 72.2%; viability at 10 µM (AsPC-1): 76.6%; viability at 10 µM (NIH: OVCAR-3): 97.3%; viability at 10 µM (TOV-21G): 65.1%; viability at 10 µM [15]: 75.2%; viability at 10 µM (U-2OS): 80.6%; viability at 10 µM [16]: 85%"
"COc1c(C)c2c(c(O)c1C/C=C(\C)CCC(=O)O)C(=O)OC2 [Mycophenolic (Mycophenolate), Mycophenolic]",54.5%,83.1%,39%,80.6%,31.7%,57.8%,64.9%,61.7%,62.1%,72.9%,66.8%,58.6%,70.1%,28.9%,57.4%,44.6%,46.1%,90.7%,51.8%,55.4%,"viability at 10 µM [12, 35]: 74.3%; viability at 10 µM [13, 36]: 57.5%; viability at 10 µM [13, 37]: 40.3%; viability at 10 µM (T24): 48.2%; viability at 10 µM [14]: 56.9%; viability at 10 µM (BxPC-3): 45.7%; viability at 10 µM (AsPC-1): 48.1%; viability at 10 µM (NIH: OVCAR-3): 59%; viability at 10 µM (TOV-21G): 40.3%; viability at 10 µM [15]: 43.2%; viability at 10 µM (U-2OS): 43.2%; viability at 10 µM [16]: 65.6%; viability [17]: 43.1%"
